# Laboratory results taken from PubChem BioAssay (NCI).
#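 Protocol summary: plate cells (96-well), add compound at 5 concentrations, incubate 48 h, interpolate endpoints linearly. The concentration for full growth arrest is given as TGI.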
# Legend:
# Assay in all cases: NCI tumour cell line growth inhibition, 48 h
# OVCAR-8 ovarian = system: OVCAR-8 ovarian
# HCT-116 colon = system: HCT-116 colon
# HT29 colon = system: HT29 colon
# SK-MEL-5 melanoma = system: SK-MEL-5 melanoma
# MDA-N = system: MDA-N
# UACC-257 melanoma = system: UACC-257 melanoma
# SR leukemia = system: SR leukemia
# SK-MEL-28 melanoma = system: SK-MEL-28 melanoma
# ACHN renal = system: ACHN renal
# PC-3 prostate = system: PC-3 prostate
# NCI-H226 lung = system: NCI-H226 lung
# RPMI-8226 leukemia = system: RPMI-8226 leukemia
# NCI/ADR-RES ovarian = system: NCI/ADR-RES ovarian
# SF-539 CNS = system: SF-539 CNS
# MDA-MB-231 breast = system: MDA-MB-231 breast
# LOX IMVI melanoma = system: LOX IMVI melanoma
# HOP-92 NSCLC = system: HOP-92 NSCLC
# BT-549 breast = system: BT-549 breast
# T-47D breast = system: T-47D breast
# OVCAR-3 ovarian = system: OVCAR-3 ovarian
# MCF7 breast = system: MCF7 breast
# MALME-3M melanoma = system: MALME-3M melanoma
# MDA-MB-435 = system: MDA-MB-435
# HS 578T breast = system: HS 578T breast
# NCI-H23 lung = system: NCI-H23 lung
# EKVX NSCLC = system: EKVX NSCLC
# OVCAR-5 ovarian = system: OVCAR-5 ovarian
# KM12 colon = system: KM12 colon
# SF-295 CNS = system: SF-295 CNS
# TK-10 renal = system: TK-10 renal
# A498 renal = system: A498 renal
# M14 melanoma = system: M14 melanoma
# SW-620 colon = system: SW-620 colon
# IGROV1 ovarian = system: IGROV1 ovarian
# OVCAR-4 ovarian = system: OVCAR-4 ovarian
# SK-MEL-2 melanoma = system: SK-MEL-2 melanoma
# UO-31 renal = system: UO-31 renal
# COLO 205 colon = system: COLO 205 colon
# SN12C renal = system: SN12C renal
# CAKI-1 renal = system: CAKI-1 renal
# HCT-15 colon = system: HCT-15 colon
# UACC-62 melanoma = system: UACC-62 melanoma
# A549 NSCLC = system: A549 NSCLC
# HCC-2998 colon = system: HCC-2998 colon
# K-562 leukemia = system: K-562 leukemia
# DU-145 prostate = system: DU-145 prostate
# SK-OV-3 ovarian = system: SK-OV-3 ovarian
# RXF 393 renal = system: RXF 393 renal
# HOP-62 NSCLC = system: HOP-62 NSCLC
# NCI-H522 lung = system: NCI-H522 lung
# SNB-19 CNS = system: SNB-19 CNS
# NCI-H460 lung = system: NCI-H460 lung
# CCRF-CEM leukemia = system: CCRF-CEM leukemia
# MOLT-4 leukemia = system: MOLT-4 leukemia
# SF-268 CNS = system: SF-268 CNS
# SNB-75 CNS = system: SNB-75 CNS
# 786-0 renal = system: 786-0 renal
# U251 CNS = system: U251 CNS
compound,measurement,setting,value
CC1OC2=N[C@@H]1C(=O)N[C@@H](Cc1ccccc1)C1=N[C@H](C(=O)N[C@@H](Cc3ccccc3)C3=N[C@H](C(=O)N[C@H]2Cc2ccccc2)C(C)O3)C(C)O1 (some centres not stated),TGI,OVCAR-8 ovarian,> 100 µM
same,TGI,HCT-116 colon,> 100 µM
same,TGI,HT29 colon,52.5 µM
same,TGI,SK-MEL-5 melanoma,57.8 µM
same,TGI,MDA-N,> 100 µM
same,TGI,UACC-257 melanoma,71.2 µM
same,TGI,SR leukemia,62.6 µM
same,TGI,SK-MEL-28 melanoma,69.2 µM
same,TGI,ACHN renal,> 100 µM
same,TGI,PC-3 prostate,73.2 µM
same,TGI,NCI-H226 lung,93.9 µM
same,TGI,RPMI-8226 leukemia,34.1 µM
same,TGI,NCI/ADR-RES ovarian,> 100 µM
same,TGI,SF-539 CNS,47.4 µM
same,TGI,MDA-MB-231 breast,72 µM
same,TGI,LOX IMVI melanoma,39.4 µM
same,TGI,HOP-92 NSCLC,59.7 µM
same,TGI,BT-549 breast,> 100 µM
same,TGI,T-47D breast,> 100 µM
same,TGI,OVCAR-3 ovarian,75.8 µM
same,TGI,MCF7 breast,> 100 µM
same,TGI,MALME-3M melanoma,57.6 µM
same,TGI,MDA-MB-435,81.7 µM
same,TGI,HS 578T breast,65.8 µM
same,TGI,NCI-H23 lung,> 100 µM
same,TGI,EKVX NSCLC,> 100 µM
same,TGI,OVCAR-5 ovarian,68.5 µM
same,TGI,KM12 colon,> 100 µM
same,TGI,SF-295 CNS,> 100 µM
same,TGI,TK-10 renal,69.5 µM
same,TGI,A498 renal,91.9 µM
same,TGI,M14 melanoma,56.4 µM
same,TGI,SW-620 colon,> 100 µM
same,TGI,IGROV1 ovarian,> 100 µM
same,TGI,OVCAR-4 ovarian,> 100 µM
same,TGI,SK-MEL-2 melanoma,52.3 µM
same,TGI,UO-31 renal,> 100 µM
same,TGI,COLO 205 colon,34.4 µM
same,TGI,SN12C renal,> 100 µM
same,TGI,CAKI-1 renal,88.6 µM
same,TGI,HCT-15 colon,> 100 µM
same,TGI,UACC-62 melanoma,80.1 µM
same,TGI,A549 NSCLC,> 100 µM
same,TGI,HCC-2998 colon,> 100 µM
same,TGI,K-562 leukemia,68.7 µM
same,TGI,DU-145 prostate,> 100 µM
same,TGI,SK-OV-3 ovarian,> 100 µM
same,TGI,RXF 393 renal,> 100 µM
same,TGI,HOP-62 NSCLC,> 100 µM
COc1ccccc1NCc1nnc(CCCCCCCCc2nnc(CNc3ccccc3OC)o2)o1,TGI,OVCAR-8 ovarian,> 100 µM
same,TGI,HCT-116 colon,> 100 µM
same,TGI,HT29 colon,> 100 µM
same,TGI,SK-MEL-5 melanoma,> 100 µM
same,TGI,MDA-N,> 100 µM
same,TGI,UACC-257 melanoma,> 100 µM
same,TGI,NCI-H522 lung,> 100 µM
same,TGI,SNB-19 CNS,> 100 µM
same,TGI,SR leukemia,> 100 µM
same,TGI,ACHN renal,> 100 µM
same,TGI,PC-3 prostate,> 100 µM
same,TGI,RPMI-8226 leukemia,> 100 µM
same,TGI,NCI/ADR-RES ovarian,> 100 µM
same,TGI,MDA-MB-231 breast,> 100 µM
same,TGI,LOX IMVI melanoma,> 100 µM
same,TGI,HOP-92 NSCLC,> 100 µM
same,TGI,NCI-H460 lung,> 100 µM
same,TGI,BT-549 breast,> 100 µM
same,TGI,T-47D breast,> 100 µM
same,TGI,CCRF-CEM leukemia,> 100 µM
same,TGI,OVCAR-3 ovarian,> 100 µM
same,TGI,MCF7 breast,> 100 µM
same,TGI,MALME-3M melanoma,> 100 µM
same,TGI,MDA-MB-435,> 100 µM
same,TGI,HS 578T breast,> 100 µM
same,TGI,NCI-H23 lung,> 100 µM
same,TGI,EKVX NSCLC,> 100 µM
same,TGI,OVCAR-5 ovarian,> 100 µM
same,TGI,KM12 colon,> 100 µM
same,TGI,MOLT-4 leukemia,> 100 µM
same,TGI,SF-295 CNS,> 100 µM
same,TGI,TK-10 renal,> 100 µM
same,TGI,A498 renal,> 100 µM
same,TGI,M14 melanoma,> 100 µM
same,TGI,OVCAR-4 ovarian,> 100 µM
same,TGI,SK-MEL-2 melanoma,> 100 µM
same,TGI,SF-268 CNS,> 100 µM
same,TGI,SNB-75 CNS,> 100 µM
same,TGI,UO-31 renal,> 100 µM
same,TGI,COLO 205 colon,> 100 µM
same,TGI,SN12C renal,> 100 µM
same,TGI,CAKI-1 renal,> 100 µM
same,TGI,HCT-15 colon,> 100 µM
same,TGI,UACC-62 melanoma,> 100 µM
same,TGI,A549 NSCLC,> 100 µM
same,TGI,786-0 renal,> 100 µM
same,TGI,HCC-2998 colon,> 100 µM
same,TGI,U251 CNS,> 100 µM
same,TGI,K-562 leukemia,> 100 µM
same,TGI,DU-145 prostate,> 100 µM
same,TGI,SK-OV-3 ovarian,> 100 µM
same,TGI,RXF 393 renal,> 100 µM
same,TGI,HOP-62 NSCLC,> 100 µM
